For orientation: inhibition means the change of the read-out against control, counted positive when it falls.

Test [1] has as its target High affinity nerve growth factor receptor (Homo sapiens) (UniProt P04629). The test is described as follows: Inhibition of recombinant human His-tagged TRKA cytoplasmic domain (441 to 796 residues) expressed in baculovirus expression system at 10 uM by Z'-LYTE assay relative to control.
Test [2] concerns the target Glycogen synthase kinase-3 beta (Homo sapiens) (UniProt P49841). The test is described as follows: Inhibition of full length recombinant human His-tagged GSK3beta expressed in baculovirus expression system at 10 uM by Z'-LYTE assay relative to control.
Test [3] has as its target Receptor-type tyrosine-protein kinase FLT3 (Homo sapiens) (UniProt P36888). The test is described as follows: Inhibition of recombinant human His-tagged FLT3 cytoplasmic domain (564 to 958 residues) expressed in baculovirus expression system at 10 uM by Z'-LYTE assay relative to control.
In test [4] the target is Epidermal growth factor receptor (Homo sapiens) (UniProt P00533). The test is described as follows: Inhibition of recombinant human GST-tagged EGFR cytoplasmic domain (668 to 1210 residues) expressed in baculovirus expression system at 10 uM by Z'-LYTE assay relative to control.
The target in test [5] is Interleukin-1 receptor-associated kinase 4 (Homo sapiens) (UniProt Q9NWZ3). The experiment in a line: Inhibition of full length recombinant human His-tagged IRAK4 expressed in baculovirus expression system at 10 uM by Z'-LYTE assay relative to control.
In test [6] the target is Protein kinase C beta type (Homo sapiens) (UniProt P05771). The test is described as follows: Inhibition of full length recombinant human PKCbeta1 expressed in baculovirus expression system at 10 uM relative to control.
Test [7] concerns the target Tyrosine-protein kinase JAK3 (Homo sapiens) (UniProt P52333). The test is described as follows: Inhibition of recombinant human GST-tagged JAK3 catalytic domain (781 to 1124 residues) expressed in baculovirus expression system at 10 uM by Z'-LYTE assay relative to control.
Test [8] deals with Tyrosine-protein kinase Lck (Homo sapiens) (UniProt P06239). The test is described as follows: Inhibition of recombinant human C-terminal His-tagged LCK cytoplasmic domain expressed in baculovirus expression system at 10 uM by Z'-LYTE assay relative to control.
Sequence of Tyrosine-protein kinase Lck (Homo sapiens) (P06239 2-509 limits assumed): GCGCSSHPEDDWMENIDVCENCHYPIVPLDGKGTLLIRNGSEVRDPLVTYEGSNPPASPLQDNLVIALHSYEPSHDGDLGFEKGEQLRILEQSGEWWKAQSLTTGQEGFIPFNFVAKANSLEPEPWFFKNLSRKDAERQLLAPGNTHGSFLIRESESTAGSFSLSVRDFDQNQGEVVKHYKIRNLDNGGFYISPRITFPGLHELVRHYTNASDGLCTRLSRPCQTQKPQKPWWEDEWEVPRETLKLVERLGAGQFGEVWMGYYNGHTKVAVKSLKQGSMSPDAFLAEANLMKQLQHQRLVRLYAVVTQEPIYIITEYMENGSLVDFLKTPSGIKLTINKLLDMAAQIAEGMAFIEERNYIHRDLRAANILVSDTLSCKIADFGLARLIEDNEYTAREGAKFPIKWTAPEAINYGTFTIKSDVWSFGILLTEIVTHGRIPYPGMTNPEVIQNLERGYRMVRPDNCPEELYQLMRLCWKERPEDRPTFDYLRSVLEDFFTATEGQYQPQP
For test [9], the target named is Dual specificity mitogen-activated protein kinase kinase 1 (Homo sapiens) (UniProt Q02750). The experiment in a line: Inhibition of full length recombinant human His-tagged MEK1 expressed in baculovirus expression system at 10 uM by Z'-LYTE assay relative to control.
Sequence of Dual specificity mitogen-activated protein kinase kinase 1 (Homo sapiens) (Q02750 whole entry): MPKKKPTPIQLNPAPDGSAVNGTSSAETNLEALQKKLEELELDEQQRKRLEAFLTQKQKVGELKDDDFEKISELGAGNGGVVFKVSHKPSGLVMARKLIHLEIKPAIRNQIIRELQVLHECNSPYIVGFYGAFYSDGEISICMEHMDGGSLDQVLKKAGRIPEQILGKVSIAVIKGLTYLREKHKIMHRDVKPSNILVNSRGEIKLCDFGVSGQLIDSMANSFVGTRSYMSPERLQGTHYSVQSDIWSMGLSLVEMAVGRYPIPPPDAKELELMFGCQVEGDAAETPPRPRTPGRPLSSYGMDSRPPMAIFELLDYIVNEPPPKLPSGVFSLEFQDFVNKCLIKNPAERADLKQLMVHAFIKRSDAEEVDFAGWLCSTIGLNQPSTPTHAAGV
For test [10], the target named is Mast/stem cell growth factor receptor Kit (Homo sapiens) (UniProt P10721). The test is described as follows: Inhibition of KIT (unknown origin) at 10 uM by Z'-LYTE assay relative to control.
For test [11], the target named is Casein kinase I isoform gamma-2 (Homo sapiens) (UniProt P78368). The experiment in a line: Inhibition of full length recombinant human His-tagged CK1gamma2 expressed in baculovirus expression system at 10 uM by Z'-LYTE assay relative to control.
Sequence of Casein kinase I isoform gamma-2 (Homo sapiens) (P78368 whole entry, looked up, canonical isoform): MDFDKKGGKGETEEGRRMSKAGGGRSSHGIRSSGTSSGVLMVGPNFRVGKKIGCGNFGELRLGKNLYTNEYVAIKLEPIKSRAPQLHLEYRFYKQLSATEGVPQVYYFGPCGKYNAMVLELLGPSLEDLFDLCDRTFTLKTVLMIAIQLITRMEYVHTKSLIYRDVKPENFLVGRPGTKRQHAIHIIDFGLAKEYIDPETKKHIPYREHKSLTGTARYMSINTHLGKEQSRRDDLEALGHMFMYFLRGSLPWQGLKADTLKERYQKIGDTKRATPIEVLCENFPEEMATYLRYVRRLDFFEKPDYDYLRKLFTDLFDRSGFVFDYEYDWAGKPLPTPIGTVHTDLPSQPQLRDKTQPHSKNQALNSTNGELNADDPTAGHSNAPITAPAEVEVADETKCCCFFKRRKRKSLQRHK
Test [12] addresses Cyclin-dependent kinase 1/cyclin B1 (Homo sapiens) (UniProt P06493+P14635). The test is described as follows: Inhibition of full length recombinant human His-tagged CDK1/Cyclin B expressed in baculovirus expression system at 10 uM by Z'-LYTE assay relative to control.
In test [13] the target is Mitogen-activated protein kinase 14 (Homo sapiens, UniProt Q16539). The test is described as follows: Inhibition of full length recombinant human GST-tagged p38alpha expressed in Escherichia coli at 10 uM using Ser/Thr04 peptide as substrate in presence of inactive MAPKAPK2 after 1 hr by FRET assay relative to control.
Sequence of Mitogen-activated protein kinase 14 (Q16539 whole entry): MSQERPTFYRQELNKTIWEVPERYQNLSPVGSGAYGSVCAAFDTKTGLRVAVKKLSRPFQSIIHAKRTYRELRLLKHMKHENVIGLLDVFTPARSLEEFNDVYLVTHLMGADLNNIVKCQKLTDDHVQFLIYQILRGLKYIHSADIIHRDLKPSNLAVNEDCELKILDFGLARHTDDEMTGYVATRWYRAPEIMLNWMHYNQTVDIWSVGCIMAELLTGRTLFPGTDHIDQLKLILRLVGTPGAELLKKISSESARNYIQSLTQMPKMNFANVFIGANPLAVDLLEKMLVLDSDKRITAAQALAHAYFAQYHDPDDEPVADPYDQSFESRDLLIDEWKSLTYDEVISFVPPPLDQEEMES

Sequence of Tyrosine-protein kinase JAK3 (Homo sapiens) (P52333 whole entry, the tested form may be a part): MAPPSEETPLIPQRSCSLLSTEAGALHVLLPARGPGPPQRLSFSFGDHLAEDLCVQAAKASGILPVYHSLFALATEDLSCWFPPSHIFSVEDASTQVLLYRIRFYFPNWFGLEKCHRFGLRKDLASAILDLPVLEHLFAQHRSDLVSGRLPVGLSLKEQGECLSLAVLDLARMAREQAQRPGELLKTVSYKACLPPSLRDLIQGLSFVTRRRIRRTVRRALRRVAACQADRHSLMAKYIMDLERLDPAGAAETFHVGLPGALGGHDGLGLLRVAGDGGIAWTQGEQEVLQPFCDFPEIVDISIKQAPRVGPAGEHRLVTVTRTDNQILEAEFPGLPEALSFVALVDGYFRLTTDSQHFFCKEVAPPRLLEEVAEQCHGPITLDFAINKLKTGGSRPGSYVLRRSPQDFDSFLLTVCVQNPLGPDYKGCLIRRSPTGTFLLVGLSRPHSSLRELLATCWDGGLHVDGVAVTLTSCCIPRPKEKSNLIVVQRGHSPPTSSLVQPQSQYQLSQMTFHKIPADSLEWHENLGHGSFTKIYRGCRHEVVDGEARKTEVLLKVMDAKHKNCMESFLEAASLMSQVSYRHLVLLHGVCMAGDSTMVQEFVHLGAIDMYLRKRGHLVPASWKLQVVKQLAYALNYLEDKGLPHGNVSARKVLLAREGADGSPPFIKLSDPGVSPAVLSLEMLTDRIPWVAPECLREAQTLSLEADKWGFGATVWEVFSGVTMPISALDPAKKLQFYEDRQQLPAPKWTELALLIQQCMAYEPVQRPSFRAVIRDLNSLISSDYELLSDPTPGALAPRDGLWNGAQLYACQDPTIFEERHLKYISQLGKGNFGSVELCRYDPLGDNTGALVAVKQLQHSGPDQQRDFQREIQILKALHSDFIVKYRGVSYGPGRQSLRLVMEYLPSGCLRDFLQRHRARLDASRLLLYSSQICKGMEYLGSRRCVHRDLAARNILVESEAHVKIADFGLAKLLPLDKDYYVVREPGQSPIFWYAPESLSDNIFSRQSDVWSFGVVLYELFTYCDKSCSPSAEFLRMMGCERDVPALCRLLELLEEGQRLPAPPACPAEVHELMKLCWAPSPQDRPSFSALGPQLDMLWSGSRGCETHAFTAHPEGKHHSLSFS
Sequence of Receptor-type tyrosine-protein kinase FLT3 (Homo sapiens) (P36888 whole entry, the tested form may be a part): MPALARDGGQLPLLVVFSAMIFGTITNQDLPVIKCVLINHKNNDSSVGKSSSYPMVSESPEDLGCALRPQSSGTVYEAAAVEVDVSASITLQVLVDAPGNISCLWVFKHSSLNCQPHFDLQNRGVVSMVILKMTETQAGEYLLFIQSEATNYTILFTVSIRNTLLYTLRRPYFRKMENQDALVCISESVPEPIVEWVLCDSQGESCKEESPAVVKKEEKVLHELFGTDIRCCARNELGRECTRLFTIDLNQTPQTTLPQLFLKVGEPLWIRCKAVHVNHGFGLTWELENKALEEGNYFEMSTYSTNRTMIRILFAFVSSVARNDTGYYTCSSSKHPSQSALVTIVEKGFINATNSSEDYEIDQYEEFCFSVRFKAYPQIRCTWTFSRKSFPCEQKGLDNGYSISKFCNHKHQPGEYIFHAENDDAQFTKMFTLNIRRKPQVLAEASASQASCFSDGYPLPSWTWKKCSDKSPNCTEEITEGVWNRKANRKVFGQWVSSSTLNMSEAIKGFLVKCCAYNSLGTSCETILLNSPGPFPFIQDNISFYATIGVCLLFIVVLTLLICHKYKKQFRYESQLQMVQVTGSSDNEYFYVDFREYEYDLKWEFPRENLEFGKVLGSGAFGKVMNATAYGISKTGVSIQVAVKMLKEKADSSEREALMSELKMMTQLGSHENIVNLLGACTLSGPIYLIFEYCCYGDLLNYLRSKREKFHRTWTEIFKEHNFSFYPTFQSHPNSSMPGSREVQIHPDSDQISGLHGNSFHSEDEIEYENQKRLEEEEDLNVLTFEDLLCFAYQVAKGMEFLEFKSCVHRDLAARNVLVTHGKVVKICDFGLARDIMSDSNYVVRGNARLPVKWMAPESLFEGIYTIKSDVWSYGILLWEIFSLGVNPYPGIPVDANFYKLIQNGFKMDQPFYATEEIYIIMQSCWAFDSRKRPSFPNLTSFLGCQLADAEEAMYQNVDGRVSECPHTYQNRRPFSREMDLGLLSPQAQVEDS
Sequence of Glycogen synthase kinase-3 beta (Homo sapiens) (P49841 whole entry, looked up, the tested form may be a part): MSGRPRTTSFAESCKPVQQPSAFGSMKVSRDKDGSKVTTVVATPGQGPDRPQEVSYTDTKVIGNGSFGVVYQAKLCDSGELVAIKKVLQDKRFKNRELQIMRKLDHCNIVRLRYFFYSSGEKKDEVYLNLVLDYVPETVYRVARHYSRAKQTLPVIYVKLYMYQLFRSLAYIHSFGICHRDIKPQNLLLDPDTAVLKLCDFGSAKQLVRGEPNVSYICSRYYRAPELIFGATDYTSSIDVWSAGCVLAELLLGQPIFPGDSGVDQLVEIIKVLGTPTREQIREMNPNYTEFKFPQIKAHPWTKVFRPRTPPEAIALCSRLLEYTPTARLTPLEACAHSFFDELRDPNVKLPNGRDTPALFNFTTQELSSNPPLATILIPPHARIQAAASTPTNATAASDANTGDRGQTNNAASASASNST
Sequence of Cyclin-dependent kinase 1/cyclin B1 (Homo sapiens) (P06493 whole entry, looked up): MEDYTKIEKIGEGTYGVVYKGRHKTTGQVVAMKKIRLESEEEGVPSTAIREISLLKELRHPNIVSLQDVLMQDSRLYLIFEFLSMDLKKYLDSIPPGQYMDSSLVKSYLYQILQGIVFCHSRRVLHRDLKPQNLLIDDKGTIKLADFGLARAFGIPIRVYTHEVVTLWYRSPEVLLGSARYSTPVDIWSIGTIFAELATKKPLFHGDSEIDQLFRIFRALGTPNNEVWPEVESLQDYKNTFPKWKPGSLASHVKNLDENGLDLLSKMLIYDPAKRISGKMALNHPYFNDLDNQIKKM
Sequence of Cyclin-dependent kinase 1/cyclin B1 (Homo sapiens) (P14635 whole entry, looked up): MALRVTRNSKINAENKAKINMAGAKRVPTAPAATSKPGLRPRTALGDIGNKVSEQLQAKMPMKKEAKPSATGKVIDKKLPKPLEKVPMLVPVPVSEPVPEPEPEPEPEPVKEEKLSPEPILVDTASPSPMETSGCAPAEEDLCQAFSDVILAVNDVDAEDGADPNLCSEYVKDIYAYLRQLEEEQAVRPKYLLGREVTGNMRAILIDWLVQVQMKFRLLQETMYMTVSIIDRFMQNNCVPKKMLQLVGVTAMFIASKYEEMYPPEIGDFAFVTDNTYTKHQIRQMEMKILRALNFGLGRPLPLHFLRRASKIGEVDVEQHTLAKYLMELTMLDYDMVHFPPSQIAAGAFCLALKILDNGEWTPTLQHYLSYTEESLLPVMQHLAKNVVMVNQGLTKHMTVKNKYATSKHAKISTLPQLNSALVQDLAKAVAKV

Take `CC1=Nc2c(Sc3ccccc3)ncnc2Sc2ccccc21`: the inhibition in test [1] is 2%; in test [2] it was 7%; in test [3], 6%; in test [4] it was 1%; in test [5], 3%; in [6], 1%. Moreover, the inhibition in [7] is -1%; in test [8], 10%; in test [9], 2%; in test [10], 3%; in test [11], 6%; in test [12] it was 8%. Further, in test [13], the inhibition was determined as 37%.

Source of the values: ChEMBL document CHEMBL3997765 (Medchemcomm, 2016).
